In patent EP4445957A1, “ANTIBACTERIAL COVALENT PEPTIDE INHIBITORS” (priority 2023, dated 2024):
Where two headings read alike, the source gives them in different places. Square brackets hold non-standard residues; d marks the D form. Peptide text beside a SMILES is read from it. * marks the point of attachment. Cha = N[C@@H](CC1CCCCC1)C(=O)O; Crotonyl(E) = C/C=C/C(=O)*; Dap = NC[C@H](N)C(=O)O; Acryloyl = C=CC(=O)*; BrAc = O=C(CBr)*; ClAc = O=C(CCl)*; X1 = CC#CC(=O)*

Key:
EcSC = target: T1, EcSC (Escherichia coli, UniProt P0A988); assay: Covalent adduct formation monitored by mass spectrometry, kinetic constants kinact; type: biochemical, E. coli; conditions: for formation of covalent adducts: reaction monitored by mass spectrometry
T1 construct: compatible with the molecular weight of ^EcSC monomer (40.6 kDa); endogenous in cells; host or cells: E. coli whole cell lysate
Description: We consider the following two-steps reaction model to describe the binding of the peptide to SC and the covalent bond formation to the His 175 residue: • First step: the peptides bind reversibly to the SC binding site • Second: the formation of the covalent bond. [drawing 31]
Overall, no major effect of the incorporation of the warheads on the binding affinity was observed on the whole series of the TCls. […] Then, kinetic constants (kinact) of compounds 1 and 2 were determined at 22°C and 37°C (Table 7, entries 4 and 7).

EcwtSC = EcwtSC (Escherichia coli, UniProt P0A988); assay: Isothermal Titration Calorimetry (ITC/kinITC), wild-type sliding clamp; type: binding, E. coli
Description: ITC experiments were performed using an iTC200 or a PEAQ-ITC instrument (Microcal Malvern Panalytical). […] Data were corrected for the heat of injection by subtracting the signal of the titration of peptides into protein-free buffer solution either R1 buffer ([4-(2-hydroxyethyl)piperazine-1-ethanesulfonic acid (HEPES) 10 mM pH 7.4, NaCl 0.15 M, EDTA 3 mM] or AcNH4 pH7.4, 150 mM). Each titration was performed at least twice: the exact number of the experiments performed with each peptide is indicated in Tables 1-6. Reported data are mean values (± SD) of all experiments. Analyses of the experimental data were performed, following a classical treatment with AFFINImeter software (https://www.affinimeter.com; S4S, Santiago de Compostela, Spain). In addition, kinetic information was obtained in some cases with kinITC as implemented in software AFFINImeter (D. Burnouf et al., J. Am. Chem. Soc. 2012, 134, 559-565; and P. Dumas et al., in Methods Enzymol., Elsevier, 2016, pp. 157-180).

EcH175GSC = EcH175GSC (Escherichia coli, UniProt P0A988, H175G); assay: Isothermal Titration Calorimetry (ITC/kinITC), H175G mutant sliding clamp; type: binding, E. coli; conditions: for ΔΔH (ΔH reduction): H175G SC mutant compared to EcwtSC, 25 °C; for ΔΔH (ΔH reduction) / -TΔS / ΔG / ΔH: R1 buffer; for -TΔS / ΔG / ΔH: 25 °C (298.15K)
Description: ITC experiments were performed using an iTC200 or a PEAQ-ITC instrument (Microcal Malvern Panalytical). Peptides (300 or 600 µM) were titrated at 25 °C by sequential injections (usually 2 µL each) into an SC solution (30 or 60 µM). Data were corrected for the heat of injection by subtracting the signal of the titration of peptides into protein-free buffer solution either R1 buffer ([4-(2-hydroxyethyl)piperazine-1-ethanesulfonic acid (HEPES) 10 mM pH 7.4, NaCl 0.15 M, EDTA 3 mM] or AcNH4 pH7.4, 150 mM). Each titration was performed at least twice: the exact number of the experiments performed with each peptide is indicated in Tables 1-6. Reported data are mean values (± SD) of all experiments. Analyses of the experimental data were performed, following a classical treatment with AFFINImeter software (https://www.affinimeter.com; S4S, Santiago de Compostela, Spain). In addition, kinetic information was obtained in some cases with kinITC as implemented in software AFFINImeter (D. Burnouf et al., J. Am. Chem. Soc. 2012, 134, 559-565; and P. Dumas et al., in Methods Enzymol., Elsevier, 2016, pp. 157-180).

[1] = buffer AcNH4 pH 7.4, 150 mM, 295.15 K (22 °C)
[2] = buffer AcNH4 pH 7.4, 150 mM, 295.15 K (22 °C), read-out: KD
[3] = buffer AcNH4 pH 7.4, 150 mM, 310.15 K (37 °C)
[4] = buffer AcNH4 pH 7.4, 150 mM, 310.15 K (37 °C), read-out: KD
[5] = buffer R1 (X 1), 295.15 K (22 °C)
[6] = buffer R1 (X 1), 310.15 K (37 °C)

T1 sequence (P0A988 whole entry): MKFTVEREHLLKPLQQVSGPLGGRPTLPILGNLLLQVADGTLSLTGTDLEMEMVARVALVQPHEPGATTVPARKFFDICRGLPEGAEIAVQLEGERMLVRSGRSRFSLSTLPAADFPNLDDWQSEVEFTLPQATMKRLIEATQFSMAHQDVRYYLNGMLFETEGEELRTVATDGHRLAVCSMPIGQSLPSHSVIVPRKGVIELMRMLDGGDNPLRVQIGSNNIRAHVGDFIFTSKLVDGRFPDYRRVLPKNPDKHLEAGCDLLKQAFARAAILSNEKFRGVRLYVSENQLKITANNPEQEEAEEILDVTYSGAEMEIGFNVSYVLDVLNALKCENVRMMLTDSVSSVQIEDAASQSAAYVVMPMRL
EcwtSC, sequence (P0A988 whole entry): as above
EcH175GSC, sequence (P0A988 whole entry H175G): as the sequence (P0A988 whole entry) above, with H175G counted along it

Row | SMILES | -TΔS (EcwtSC; R1 buffer, 25 °C (298.15K)) | ΔG (EcwtSC; R1 buffer, 25 °C (298.15K)) | ΔH (EcwtSC; R1 buffer, 25 °C (298.15K)) | -TΔS (EcwtSC; [1]) | ΔG (EcwtSC; [1]) | ΔH (EcwtSC; [1]) | Kd (EcwtSC; [2]) | -TΔS (EcwtSC; [3]) | ΔG (EcwtSC; [3]) | ΔH (EcwtSC; [3]) | Kd (EcwtSC; [4]) | -TΔS (EcwtSC; [5]) | ΔG (EcwtSC; [5]) | ΔH (EcwtSC; [5]) | -TΔS (EcwtSC; [6]) | ΔG (EcwtSC; [6]) | ΔH (EcwtSC; [6]) | ΔΔH (ΔH reduction) (EcH175GSC) | -TΔS (EcH175GSC) | ΔG (EcH175GSC) | also measured
1 | C=CC(=O)NC[C@H](NC(=O)[C@H](CC1CCCCC1)NC(=O)[C@H](CCC(N)=O)NC(C)=O)C(=O)N[C@@H](CC(C)C)C(=O)N[C@@H](Cc1ccccc1)C(=O)O [Peptide 1, Ac-Gln-Cha-Dap(acrylamide)-Leu-Phe-OH] (Ac-Q[Cha][Dap](Acryloyl)LF-OH) | 3.7 (± 0.02) kcal/mol | -9.2 (± 0.07) kcal/mol | -12.8 (± 0.08) kcal/mol | 2.3 (± 0.7) kcal/mol | -9.3 (± 0.3) kcal/mol | -11.5 (± 0.5) kcal/mol | 153 nM | 6.9 (± 1.1) kcal/mol | -8.9 (± 0.1) kcal/mol | -15.9 (± 1.2) kcal/mol | 482 nM | 2.1 (± 0.2) kcal/mol | -9.4 (± 0.2) kcal/mol | -11.4 (± 0.4) kcal/mol | 4.9 (± 1.1) kcal/mol | -9.04 (± 0.26) kcal/mol | -13.9 (± 0.8) kcal/mol | 2.1 kcal/mol | 3.3 (±0.7) kcal/mol | -8.3 (±0.1) kcal/mol | formation of covalent adducts (EcSC): form covalent adducts; ΔH (EcH175GSC): -11.6 (±0.6) kcal/mol
2 | CC(=O)N[C@@H](CCC(N)=O)C(=O)N[C@@H](CC1CCCCC1)C(=O)N[C@@H](CNC(=O)CCl)C(=O)N[C@@H](CC(C)C)C(=O)N[C@@H](Cc1ccccc1)C(=O)O [Peptide 2, Ac-Gln-Cha-Dap(chloroacetamide)-Leu-Phe-OH] (Ac-Q[Cha][Dap](ClAc)LF-OH) | 2.5 (± 0.4) kcal/mol | -9.2 (± 0.1) kcal/mol | -11.7 (± 0.4) kcal/mol | 1.7 (± 1.5) kcal/mol | -9.2 (± 0.1) kcal/mol | -10.9 (± 1.5) kcal/mol | – | 8.1 (± 3.0) kcal/mol | -8.9 (± 0.4) kcal/mol | -16.9 (± 2.7) kcal/mol | 580 nM | -0.3 (± 0.1) kcal/mol | -9.31 (± 0.03) kcal/mol | -8.9 (± 0.1) kcal/mol | 2.3 (± 0.9) kcal/mol | -9.03 (± 0.23) kcal/mol | -11.3 (± 0.8) kcal/mol | 3.2 kcal/mol | 1.2 (±0.1) kcal/mol | -8.3 (±0.08) kcal/mol | kinact (M^-1. s^-1) at 37 °C (AcONH4 buffer) (EcSC; 37 °C, AcONH4 buffer, second-order rate constant): 1.04 ± 0.01 M⁻¹ s⁻¹; formation of covalent adducts (EcSC): form covalent adducts; Kd (EcwtSC; read-out: KD (nM) at 22 °C (AcONH4 buffer), Table 7, 22 °C, AcONH4 buffer): 146 ± 20 nM; ΔH (EcH175GSC): -9.6 (±0.1) kcal/mol
3 | C/C=C/C(=O)NC[C@H](NC(=O)[C@H](CC1CCCCC1)NC(=O)[C@H](CCC(N)=O)NC(C)=O)C(=O)N[C@@H](CC(C)C)C(=O)N[C@@H](Cc1ccccc1)C(=O)O [Peptide 3, Ac-Gln-Cha-Dap(but-2-enamide)-Leu-Phe-OH] (Ac-Q[Cha][Dap](Crotonyl(E))LF-OH) | 1.1 (± 0.1) kcal/mol | -9.25 (± 0.01) kcal/mol | -10.4 (± 0.1) kcal/mol | 0.79 (± 0.52) kcal/mol | -9.02 (± 0.2) kcal/mol | -9.81 (± 0.4) kcal/mol | 212 nM | 6.31 (±0.02) kcal/mol | -8.97 (± 0.06) kcal/mol | -15.3 (± 0.1) kcal/mol | – | 1.8 (± 0.4) kcal/mol | -9.7 (± 0.2) kcal/mol | -11.7 (± 0.6) kcal/mol | 5.8 (± 1) kcal/mol | -9.1 (± 0.2) kcal/mol | -14.8 (± 0.8) kcal/mol | – | – | – | Kd (EcwtSC; read-out: KD (nM) at 37 °C (AcONH4 buffer), Table 7, 37 °C, AcONH4 buffer): 475 ± 47 nM
4 | CC(=O)N[C@@H](CCC(N)=O)C(=O)N[C@@H](CC1CCCCC1)C(=O)N[C@@H](CNC(=O)CBr)C(=O)N[C@@H](CC(C)C)C(=O)N[C@@H](Cc1ccccc1)C(=O)O [Peptide 4, Ac-Gln-Cha-Dap(bromoacetamide)-Leu-Phe-OH] (Ac-Q[Cha][Dap](BrAc)LF-OH) | – | – | – | – | – | – | 111 nM | – | – | – | 281 nM | – | – | – | – | – | – | – | – | – | Kd (EcwtSC; KD (nM) at 22 °C (AcONH4 buffer), Table 7, 22 °C, AcONH4 buffer): 111 ± 17 nM; Kd (EcwtSC; KD (nM) at 25°C (Hepes buffer), Table 7, 25°C, Hepes buffer): 139 ± 54 nM; Kd (EcwtSC; KD (nM) at 37 °C (AcONH4 buffer), Table 7, 37 °C, AcONH4 buffer): 281 ± 62 nM; Kd (EcwtSC; R1 buffer, 25 °C (298.15K), read-out: KD): 141 nM; Kd (EcwtSC; buffer R1 (X 1), 295.15 K (22 °C), read-out: KD): 96.4 nM; Kd (EcwtSC; buffer R1 (X 1), 310.15 K (37 °C), read-out: KD): 273 nM; Kd (EcH175GSC): 730 nM
5 | CC#CC(=O)NC[C@H](NC(=O)[C@H](CC1CCCCC1)NC(=O)[C@H](CCC(N)=O)NC(C)=O)C(=O)N[C@@H](CC(C)C)C(=O)N[C@@H](Cc1ccccc1)C(=O)O [Peptide 5, Ac-Gln-Cha-Dap(but-2-ynamide)-Leu-Phe-OH] (Ac-Q[Cha][Dap](X1)LF-OH) | 2.1 (± 0.1) kcal/mol | -9.8 (± 0.1) kcal/mol | -11.8 (± 0.06) kcal/mol | – | – | – | – | – | – | – | – | 2.7 (± 1.2) kcal/mol | -10.5 (± 0.2) kcal/mol | -13.1 (± 1.2) kcal/mol | 6.9 (± 0.4) kcal/mol | -10.12 (± 0.03) kcal/mol | -17.0 (± 0.4) kcal/mol | 2.0 kcal/mol | 0.04 (±0.3) kcal/mol | -9.7 (±0.1) kcal/mol | ΔH (EcH175GSC): -9.7 (±0.2) kcal/mol
